From ChEMBL document CHEMBL1201862, “PubChem BioAssay data set” (2004)
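96-well plates; 48 h exposure; 5 concentrations. Endpoints by linear interpolation between flanking doses. Not reached: highest tested concentration assigned. GI50 marks 50% less growth.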 Calls of active or inactive are those of the source. Rule as the data show it: active = GI50 up to about 1.1 µM and inactive = higher.

Assays:
Experiment in all cases: NCI tumour cell line growth inhibition, 48 h
UO-31 = system: UO-31
CAKI-1 = system: CAKI-1
HCT-15 = system: HCT-15
SF-295 = system: SF-295
UACC-62 = system: UACC-62
MCF7 = system: MCF7
COLO 205 = system: COLO 205
U-251 = system: U-251
DU-145 = system: DU-145
M14 = system: M14
OVCAR-4 = system: OVCAR-4
NCI-H23 = system: NCI-H23
Malme-3M = system: Malme-3M
HOP-62 = system: HOP-62
PC-3 = system: PC-3
RXF 393 = system: RXF 393
HCT-116 = system: HCT-116
SN12C = system: SN12C
HL-60 = system: HL-60
EKVX = system: EKVX

| SMILES | GI50 (UO-31) | GI50 (CAKI-1) | GI50 (HCT-15) [µM] | GI50 (SF-295) | GI50 (UACC-62) | GI50 (MCF7) | GI50 (COLO 205) | GI50 (U-251) | GI50 (DU-145) | GI50 (M14) | GI50 (OVCAR-4) | GI50 (NCI-H23) | GI50 (Malme-3M) | GI50 (HOP-62) | GI50 (PC-3) | GI50 (RXF 393) | GI50 (HCT-116) | GI50 (SN12C) | GI50 (HL-60) | GI50 (EKVX) |
| --- | --- | --- | --- | --- | --- | --- | --- | --- | --- | --- | --- | --- | --- | --- | --- | --- | --- | --- | --- | --- |
| Cc1ccc(NC(=S)NNC(=O)c2cc(-c3ccccc3)nc3ccccc23)cc1C | 17.9 µM (inactive) | 59.7 µM (inactive) | 20.4 | 12.9 µM (inactive) | 16.9 µM (inactive) | 12.4 µM (inactive) | 16.6 µM (inactive) | 19.5 µM (inactive) | 22.4 µM (inactive) | 15.5 µM (inactive) | 18.1 µM (inactive) | 19.3 µM (inactive) | 20 µM (inactive) | 22 µM (inactive) | 18.7 µM (inactive) | 27 µM (inactive) | 18.6 µM (inactive) | 17.6 µM (inactive) | – | – |
| O=C1CC(CC(OCc2ccccc2)C(COCc2ccccc2)OCc2ccccc2)CC(=O)N1 (centres undefined) | 16 µM (inactive) | 19.7 µM (inactive) | 31.9 | 34.9 µM (inactive) | – | 33.1 µM (inactive) | 19.2 µM (inactive) | 32.5 µM (inactive) | 69.3 µM (inactive) | 39.4 µM (inactive) | 38.4 µM (inactive) | 43.1 µM (inactive) | 19.9 µM (inactive) | 39.8 µM (inactive) | 24.7 µM (inactive) | 30.1 µM (inactive) | 23.6 µM (inactive) | 44.6 µM (inactive) | 28 µM (inactive) | 19.7 µM (inactive) |
| CC(C)(C)NCC(O)c1ccc(O)c(CO)n1 (centres undefined) | > 100 µM (inactive) | > 100 µM (inactive) | > 100 | > 100 µM (inactive) | > 100 µM (inactive) | > 100 µM (inactive) | > 100 µM (inactive) | > 100 µM (inactive) | > 100 µM (inactive) | > 100 µM (inactive) | > 100 µM (inactive) | > 100 µM (inactive) | – | > 100 µM (inactive) | > 100 µM (inactive) | > 100 µM (inactive) | > 100 µM (inactive) | > 100 µM (inactive) | > 100 µM (inactive) | > 100 µM (inactive) |
| O=C(NC1C/C(=N/O)c2c(Br)sc(Br)c21)C(F)(F)F (centres undefined) | 13.7 µM (inactive) | 13.8 µM (inactive) | 24.8 | 31 µM (inactive) | 16.9 µM (inactive) | 37.6 µM (inactive) | 51.8 µM (inactive) | 16.7 µM (inactive) | 27.5 µM (inactive) | 36.2 µM (inactive) | 13.8 µM (inactive) | 16 µM (inactive) | 45.9 µM (inactive) | – | 13.9 µM (inactive) | 11.3 µM (inactive) | 17.1 µM (inactive) | 21.2 µM (inactive) | 32.4 µM (inactive) | 27 µM (inactive) |
| CC1C(=O)N(c2ccccc2)NC12CCCc1ccccc12 (centres undefined) | > 100 µM (inactive) | > 100 µM (inactive) | > 100 | > 100 µM (inactive) | > 100 µM (inactive) | > 100 µM (inactive) | > 100 µM (inactive) | > 100 µM (inactive) | > 100 µM (inactive) | > 100 µM (inactive) | > 100 µM (inactive) | > 100 µM (inactive) | > 100 µM (inactive) | > 100 µM (inactive) | > 100 µM (inactive) | > 100 µM (inactive) | > 100 µM (inactive) | > 100 µM (inactive) | > 100 µM (inactive) | > 100 µM (inactive) |
| O=C(O)c1ccc(NS(=O)(=O)Cc2ccccc2)cc1 | > 100 µM (inactive) | > 100 µM (inactive) | > 100 | > 100 µM (inactive) | > 100 µM (inactive) | > 100 µM (inactive) | > 100 µM (inactive) | > 100 µM (inactive) | > 100 µM (inactive) | > 100 µM (inactive) | > 100 µM (inactive) | > 100 µM (inactive) | > 100 µM (inactive) | > 100 µM (inactive) | > 100 µM (inactive) | > 100 µM (inactive) | > 100 µM (inactive) | > 100 µM (inactive) | > 100 µM (inactive) | > 100 µM (inactive) |
| CC(C)(C)C(=O)OCC1C(=O)OCC1C(=O)N1Cc2cc3ccccc3nc2C1 (centres undefined) | 2.47 µM (inactive) | 1.28 µM (inactive) | 1.75 | 14.3 µM (inactive) | 4.51 µM (inactive) | 3.47 µM (inactive) | 0.957 µM (active) | 9.2 µM (inactive) | 16.4 µM (inactive) | 2.8 µM (inactive) | 2.38 µM (inactive) | 4.55 µM (inactive) | 1.46 µM (inactive) | 14.4 µM (inactive) | 10.9 µM (inactive) | 1.5 µM (inactive) | 2.09 µM (inactive) | 5.28 µM (inactive) | 0.748 µM (active) | 7.41 µM (inactive) |
| COC1OC(CS(=O)(=O)O)C(O)C(O)C1O (centres undefined) | > 100 µM (inactive) | > 100 µM (inactive) | > 100 | > 100 µM (inactive) | > 100 µM (inactive) | > 100 µM (inactive) | > 100 µM (inactive) | > 100 µM (inactive) | > 100 µM (inactive) | > 100 µM (inactive) | > 100 µM (inactive) | > 100 µM (inactive) | > 100 µM (inactive) | > 100 µM (inactive) | > 100 µM (inactive) | > 100 µM (inactive) | > 100 µM (inactive) | > 100 µM (inactive) | > 100 µM (inactive) | – |
| CN(C)c1ccc(/C=C2/SC(=S)NC2=O)cc1 | > 100 µM (inactive) | > 100 µM (inactive) | > 100 | > 100 µM (inactive) | > 100 µM (inactive) | > 100 µM (inactive) | > 100 µM (inactive) | 61.7 µM (inactive) | > 100 µM (inactive) | > 100 µM (inactive) | > 100 µM (inactive) | > 100 µM (inactive) | > 100 µM (inactive) | 52.2 µM (inactive) | > 100 µM (inactive) | > 100 µM (inactive) | 33.2 µM (inactive) | > 100 µM (inactive) | > 100 µM (inactive) | > 100 µM (inactive) |
| CCC1(OC(=O)CN)C(=O)OCc2c1cc1n(c2=O)Cc2cc3ccccc3nc2-1 (centres undefined) | 0.0114 µM (active) | 0.01 µM (active) | 0.149 | 0.01 µM (active) | 0.01 µM (active) | 0.01 µM (active) | 0.0491 µM (active) | 0.01 µM (active) | 0.01 µM (active) | 0.01 µM (active) | 0.12 µM (active) | 0.01 µM (active) | 0.151 µM (active) | 0.01 µM (active) | 0.0661 µM (active) | 0.0378 µM (active) | – | 0.0113 µM (active) | 0.00764 µM (active) | 0.598 µM (active) |
| CCCS(=O)(=O)O | > 100 µM (inactive) | > 100 µM (inactive) | > 100 | > 100 µM (inactive) | > 100 µM (inactive) | > 100 µM (inactive) | > 100 µM (inactive) | > 100 µM (inactive) | > 100 µM (inactive) | > 100 µM (inactive) | > 100 µM (inactive) | > 100 µM (inactive) | > 100 µM (inactive) | > 100 µM (inactive) | > 100 µM (inactive) | > 100 µM (inactive) | – | – | > 100 µM (inactive) | > 100 µM (inactive) |
| COc1cc([C@@H]2c3cc4c(cc3[C@@H](c3c(O)cc(O)c5c3O[C@H](c3ccc(O)c(O)c3)[C@@H](O)C5)[C@H]3COC(=O)[C@H]23)OCO4)cc(OC)c1O | – | > 100 µM (inactive) | > 100 | > 100 µM (inactive) | > 100 µM (inactive) | > 100 µM (inactive) | > 100 µM (inactive) | > 100 µM (inactive) | > 100 µM (inactive) | > 100 µM (inactive) | > 100 µM (inactive) | > 100 µM (inactive) | > 100 µM (inactive) | > 100 µM (inactive) | > 100 µM (inactive) | > 100 µM (inactive) | 72.8 µM (inactive) | > 100 µM (inactive) | 27 µM (inactive) | > 100 µM (inactive) |
| O=C(O)c1cc(-c2ccc3cc4c(cc3c2)OCO4)nc2ccccc12 | 11.5 µM (inactive) | – | 12.3 | 23.8 µM (inactive) | 23.5 µM (inactive) | 32.2 µM (inactive) | 42.4 µM (inactive) | 19.7 µM (inactive) | 63.4 µM (inactive) | 28 µM (inactive) | > 100 µM (inactive) | 43.8 µM (inactive) | 65.2 µM (inactive) | 41.1 µM (inactive) | 14.1 µM (inactive) | 54 µM (inactive) | 19.5 µM (inactive) | 20.8 µM (inactive) | 16.5 µM (inactive) | 14.4 µM (inactive) |
| CC(SC(=S)N1CCOCC1)C(=O)Nc1nnc(-c2ccc(Cl)cc2)o1 (centres undefined) | 22.4 µM (inactive) | – | 20.7 | – | 50.6 µM (inactive) | 32.3 µM (inactive) | 38.4 µM (inactive) | 35 µM (inactive) | 79.6 µM (inactive) | 36 µM (inactive) | 26.7 µM (inactive) | 50.2 µM (inactive) | > 100 µM (inactive) | 52 µM (inactive) | 38.5 µM (inactive) | > 100 µM (inactive) | 23.8 µM (inactive) | 36.1 µM (inactive) | – | – |
| CCC(=O)N/S(=N/S(=O)(=O)c1ccccc1)C(Cl)(Cl)Cl (centres undefined) | > 100 µM (inactive) | – | > 100 | > 100 µM (inactive) | > 100 µM (inactive) | > 100 µM (inactive) | > 100 µM (inactive) | > 100 µM (inactive) | > 100 µM (inactive) | > 100 µM (inactive) | > 100 µM (inactive) | > 100 µM (inactive) | > 100 µM (inactive) | > 100 µM (inactive) | > 100 µM (inactive) | > 100 µM (inactive) | > 100 µM (inactive) | > 100 µM (inactive) | > 100 µM (inactive) | > 100 µM (inactive) |
